Measured values: patent US8569493B2 (Santen Pharmaceutical Co., Ltd., priority 2007, dated 2013)

Biological target: T1, Recombinant human GR (Homo sapiens, UniProt P04150)
T1 construct: purchased Invitrogen P2816
T1 sequence (P04150 1-777): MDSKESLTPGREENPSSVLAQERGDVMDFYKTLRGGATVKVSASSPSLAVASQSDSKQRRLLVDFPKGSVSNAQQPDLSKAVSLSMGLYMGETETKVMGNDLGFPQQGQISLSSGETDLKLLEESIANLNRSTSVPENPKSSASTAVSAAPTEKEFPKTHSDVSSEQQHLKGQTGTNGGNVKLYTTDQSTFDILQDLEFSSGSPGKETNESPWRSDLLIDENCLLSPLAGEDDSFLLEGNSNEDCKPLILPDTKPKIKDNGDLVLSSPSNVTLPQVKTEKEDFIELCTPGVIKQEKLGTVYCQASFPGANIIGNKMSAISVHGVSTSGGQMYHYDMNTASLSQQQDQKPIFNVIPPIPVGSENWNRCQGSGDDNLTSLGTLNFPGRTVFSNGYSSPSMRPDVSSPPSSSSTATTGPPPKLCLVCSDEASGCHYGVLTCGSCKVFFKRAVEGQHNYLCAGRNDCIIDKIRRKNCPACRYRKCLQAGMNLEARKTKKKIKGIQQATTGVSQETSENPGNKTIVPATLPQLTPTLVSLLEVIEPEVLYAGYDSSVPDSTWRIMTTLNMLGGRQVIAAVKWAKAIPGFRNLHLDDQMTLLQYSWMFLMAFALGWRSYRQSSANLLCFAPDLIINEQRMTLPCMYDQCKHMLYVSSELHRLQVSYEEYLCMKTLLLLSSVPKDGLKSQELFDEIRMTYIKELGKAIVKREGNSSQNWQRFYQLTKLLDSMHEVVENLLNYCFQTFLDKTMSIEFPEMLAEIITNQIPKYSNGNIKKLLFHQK
Experiment: GR competitor assay by fluorescence polarization (binding activity to glucocorticoid receptor)
Conditions: 20 μM test compound solution, 10 μL per well plus 5 μL 4×GS1 and 5 μL 4×GR; 2 to 4 hours at room temperature; ratio of 100% or more is indicated by 100%
Procedure: 1. Evaluation Test for Binding Activity to Glucocorticoid Receptor (hereinafter referred to as “GR”)
In order to evaluate a binding activity to GR, a receptor competitor assay was carried out by a fluorescence polarization method. In the assay, a GR competitor assay kit (manufactured by Invitrogen, cat No. P2816) was used, and a procedure was carried out according to the protocol attached to the kit. Hereinafter, the specific method will be described.
(Preparation of Reagents)
GR screening buffer: A buffer containing 10 mM potassium phosphate (pH 7.4), 20 mM sodium molybdate (Na2MoO4), 0.1 mM ethylene diamine tetraacetic acid (EDTA), 5 mM dithiothreitol (DTT), 0.1 mM stabilizing peptide and 2% dimethylsulfoxide was prepared.
4×GS1 solution: Fluormone™ GS1, which is a fluorescent glucocorticoid ligand, was diluted with GR screening buffer, whereby a 4 nM solution was prepared.
4×GR solution: Recombinant human GR was diluted with GR screening buffer, whereby a 16 nM solution was prepared.
(Preparation of Test Compound Solution)
After a test compound was dissolved in dimethylsulfoxide, it was diluted with GR screening buffer, whereby a 20 μM test compound solution was prepared.
(Test Method and Measurement Method)
1) The test compound solution was added in an amount of 10 μL into each well of a 384-well plate, and then, 4×GS1 solution and 4×GR solution were added in an amount of 5 μL into each well, respectively.
2) The plate was incubated in a dark place at room temperature for 2 to 4 hours.
3) By using a multimode plate reader, Analyst™ HT (manufactured by LJL Biosystems), fluorescence polarization of each well was measured. As the blank, a well containing GR screening buffer in place of the test compound and 4×GS1 solution was used.
4) The same procedure as that in the above 1) to 3) was carried out except that GR screening buffer was used in place of the test compound solution, and the obtained result was taken as the negative control.
5) The same procedure as that in the above 1) to 3) was carried out except that 2 mM dexamethasone was used in place of the test compound solution, and the obtained result was taken as the positive control.
(Calculation Equation of GR Binding Ratio)
A GR binding ratio (%) was calculated from the following equation. GR binding ratio(%)=100×[1−(fluorescence polarization of test compound solution−fluorescence polarization of positive control solution)/(fluorescence polarization of negative control solution−fluorescence polarization of positive control solution)] (Test Results and Discussion)

Row | SMILES | inhibition at 10 µM [%]
1 | COc1cc(OS(C)(=O)=O)ccc1-c1ccc2c(c1COc1cc(F)ccc1C)N(C)C(=O)C(C)(C)N2 [Compound 1-1, 8-(5-Fluoro-2-methylphenoxymethyl)-7-(2-methoxy-4-methylsulfonyloxyphenyl)-1,3,3-trimethyl-3,4-dihydro-1H-quinoxalin-2-one] | 91
2 | COc1cc(OS(=O)(=O)c2ccccc2)ccc1-c1ccc2c(c1COc1cc(F)ccc1C)N(C)C(=O)C(C)(C)N2 [Compound 1-2] | 85
3 | COc1cc(OS(=O)(=O)C(F)(F)F)ccc1-c1ccc2c(c1COc1cc(F)ccc1C)N(C)C(=O)C(C)(C)N2 [Compound 1-3] | 99
4 | CCCS(=O)(=O)Oc1ccc(-c2ccc3c(c2COc2cc(F)ccc2C)N(C)C(=O)C(C)(C)N3)c(OC)c1 [Compound 1-4] | 99
5 | COc1cc(OS(=O)(=O)c2ccco2)ccc1-c1ccc2c(c1COc1cc(F)ccc1C)N(C)C(=O)C(C)(C)N2 [Compound 1-5] | 95
6 | COc1cc(OS(C)(=O)=O)ccc1-c1ccc2c(c1COC(=O)c1ccc(C)s1)N(C)C(=O)C(C)(C)N2 [Compound 1-6] | 100
7 | COc1cc(OS(=O)(=O)c2ccccc2)ccc1-c1ccc2c(c1COC(=O)c1ccc(C)s1)N(C)C(=O)C(C)(C)N2 [Compound 1-7] | 86
8 | COc1cc(OS(=O)(=O)c2ccccc2Cl)ccc1-c1ccc2c(c1COc1cc(F)ccc1C)N(C)C(=O)C(C)(C)N2 [Compound 1-8] | 85
9 | COc1cc(OS(=O)(=O)Cc2ccccc2)ccc1-c1ccc2c(c1COc1cc(F)ccc1C)N(C)C(=O)C(C)(C)N2 [Compound 1-9] | 100
10 | COC(=O)CCS(=O)(=O)Oc1ccc(-c2ccc3c(c2COc2cc(F)ccc2C)N(C)C(=O)C(C)(C)N3)c(OC)c1 [Compound 1-10] | 100
11 | COc1cc(OS(=O)(=O)c2ccccc2C)ccc1-c1ccc2c(c1COc1cc(F)ccc1C)N(C)C(=O)C(C)(C)N2 [Compound 1-11] | 83
12 | CCCCS(=O)(=O)Oc1ccc(-c2ccc3c(c2COc2cc(F)ccc2C)N(C)C(=O)C(C)(C)N3)c(OC)c1 [Compound 1-12] | 100
13 | CCS(=O)(=O)Oc1ccc(-c2ccc3c(c2COc2cc(F)ccc2C)N(C)C(=O)C(C)(C)N3)c(OC)c1 [Compound 1-13] | 100
14 | COc1cc(OS(=O)(=O)C(C)C)ccc1-c1ccc2c(c1COc1cc(F)ccc1C)N(C)C(=O)C(C)(C)N2 [Compound 1-14] | 100
15 | COc1cccc(S(=O)(=O)Oc2ccc(-c3ccc4c(c3COc3cc(F)ccc3C)N(C)C(=O)C(C)(C)N4)c(OC)c2)c1 [Compound 1-15] | 82
16 | COc1cc(OS(=O)(=O)c2cccc(Cl)c2)ccc1-c1ccc2c(c1COc1cc(F)ccc1C)N(C)C(=O)C(C)(C)N2 [Compound 1-16] | 68
17 | COc1cc(OS(=O)(=O)c2ccc(Cl)cc2)ccc1-c1ccc2c(c1COc1cc(F)ccc1C)N(C)C(=O)C(C)(C)N2 [Compound 1-17] | 65
18 | COc1cc(OS(=O)(=O)Cc2cccc(Cl)c2)ccc1-c1ccc2c(c1COc1cc(F)ccc1C)N(C)C(=O)C(C)(C)N2 [Compound 1-18] | 88
19 | COc1cc(OS(=O)(=O)Cc2ccc(C)cc2)ccc1-c1ccc2c(c1COc1cc(F)ccc1C)N(C)C(=O)C(C)(C)N2 [Compound 1-19] | 91
20 | COc1cc(OS(=O)(=O)Cc2ccc(Cl)cc2)ccc1-c1ccc2c(c1COc1cc(F)ccc1C)N(C)C(=O)C(C)(C)N2 [Compound 1-20] | 87
21 | COc1cc(OS(=O)(=O)CC(C)C)ccc1-c1ccc2c(c1COc1cc(F)ccc1C)N(C)C(=O)C(C)(C)N2 [Compound 1-21] | 92

Row | SMILES | inhibition at 10 µM [%]
22 | COc1cc(OS(=O)(=O)CCC(F)(F)F)ccc1-c1ccc2c(c1COc1cc(F)ccc1C)N(C)C(=O)C(C)(C)N2 [Compound 1-22] | 91
23 | COc1cc(OS(=O)(=O)C2CC2)ccc1-c1ccc2c(c1COc1cc(F)ccc1C)N(C)C(=O)C(C)(C)N2 [Compound 1-23] | 94
24 | COc1cc(NS(C)(=O)=O)ccc1-c1ccc2c(c1COc1cc(F)ccc1C)N(C)C(=O)C(C)(C)N2 [Compound 1-25] | 92
25 | COc1cc(OS(=O)(=O)c2ccccc2F)ccc1-c1ccc2c(c1COc1cc(F)ccc1C)N(C)C(=O)C(C)(C)N2 [Compound 1-26] | 95
26 | COc1cc(OS(=O)(=O)Cc2ccccc2Cl)ccc1-c1ccc2c(c1COc1cc(F)ccc1C)N(C)C(=O)C(C)(C)N2 [Compound 1-27] | 99
27 | COc1cc(OS(=O)(=O)Cc2ccccc2C)ccc1-c1ccc2c(c1COc1cc(F)ccc1C)N(C)C(=O)C(C)(C)N2 [Compound 1-28] | 91
28 | COc1cc(OS(=O)(=O)C2CCCC2)ccc1-c1ccc2c(c1COc1cc(F)ccc1C)N(C)C(=O)C(C)(C)N2 [Compound 1-29] | 95
29 | COc1cc(OS(=O)(=O)C2CCCCC2)ccc1-c1ccc2c(c1COc1cc(F)ccc1C)N(C)C(=O)C(C)(C)N2 [Compound 1-30] | 92
30 | COc1cc(OS(=O)(=O)Cc2cccc(C)c2)ccc1-c1ccc2c(c1COc1cc(F)ccc1C)N(C)C(=O)C(C)(C)N2 [Compound 1-31] | 90
31 | COc1cc(OS(=O)(=O)C2CC2)ccc1-c1ccc2c(c1COC(=O)c1ccc(C)s1)N(C)C(=O)C(C)(C)N2 [Compound 1-32] | 96
32 | COc1cc(OS(=O)(=O)CCC(F)(F)F)ccc1-c1ccc2c(c1COC(=O)c1ccc(C)s1)N(C)C(=O)C(C)(C)N2 [Compound 1-33] | 95
33 | COc1cc(OS(=O)(=O)CC(C)C)ccc1-c1ccc2c(c1COC(=O)c1ccc(C)s1)N(C)C(=O)C(C)(C)N2 [Compound 1-34] | 100
34 | CCCS(=O)(=O)Oc1ccc(-c2ccc3c(c2COC(=O)c2ccc(C)s2)N(C)C(=O)C(C)(C)N3)c(OC)c1 [Compound 1-35] | 95
35 | COc1cc(OS(=O)(=O)C(C)C)ccc1-c1ccc2c(c1COC(=O)c1ccc(C)s1)N(C)C(=O)C(C)(C)N2 [Compound 1-36] | 99
36 | COc1cc(OS(=O)(=O)C2CCCC2)ccc1-c1ccc2c(c1COC(=O)c1ccc(C)s1)N(C)C(=O)C(C)(C)N2 [Compound 1-37] | 94
37 | COc1ccc([N+](=O)[O-])cc1OCc1c(-c2ccc(OS(C)(=O)=O)cc2OC)ccc2c1N(C)C(=O)C(C)(C)N2 [Compound 1-38] | 100
38 | COc1ccc([N+](=O)[O-])cc1OCc1c(-c2ccc(OS(=O)(=O)CCC(F)(F)F)cc2OC)ccc2c1N(C)C(=O)C(C)(C)N2 [Compound 1-39] | 100
39 | COc1ccc([N+](=O)[O-])cc1OCc1c(-c2ccc(OS(=O)(=O)CC(C)C)cc2OC)ccc2c1N(C)C(=O)C(C)(C)N2 [Compound 1-40] | 100
40 | COc1ccc([N+](=O)[O-])cc1OCc1c(-c2ccc(OS(=O)(=O)C3CCCC3)cc2OC)ccc2c1N(C)C(=O)C(C)(C)N2 [Compound 1-41] | 100
41 | COc1ccc([N+](=O)[O-])cc1OCc1c(-c2ccc(OS(=O)(=O)C(C)C)cc2OC)ccc2c1N(C)C(=O)C(C)(C)N2 [Compound 1-42] | 100
42 | COc1ccc([N+](=O)[O-])cc1OCc1c(-c2ccc(OS(=O)(=O)C3CC3)cc2OC)ccc2c1N(C)C(=O)C(C)(C)N2 [Compound 1-43] | 100
